EP0187355A1, “Process for preparing beta-lactam antibiotics” (E.R. Squibb & Sons, Inc., priority 1981, dated 1982)
Structures can show the parent of a compound that is named as a salt.

How the values were obtained:
Assay in all cases: MIC, agar dilution
Type in all cases: cell-based
[1] = test system: Streptococcus agalactiae, 9287; conditions: K-10 agar, 10^4 CFU, 37°C; for MIC: Streptococcus agalactiae, 9287, 18 h, read-out: M.I.C.
Method in brief: (§1)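 Broth cultures grown 18-20 h at 37°C, diluted 1:100 in K-10 broth, applied by multipoint inoculator at 10^4 CFU onto K-10 agar holding twofold compound dilutions, 100 to 0.05 µg/ml final. MIC taken as lowest concentration inhibiting growth.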

Micrococcus luteus, 2495 = conditions: K-10 agar, 10^4 CFU, 37°C; for MIC: Micrococcus luteus, 2495, 18 h, read-out: M.I.C.
Method in brief: as §1

[2] = test system: Enterobacter cloacae, 8236; conditions: K-10 agar, 10^4 CFU, 37°C; for MIC: Enterobacter cloacae, 8236, 18 h
Method in brief: as §1

[3] = test system: Pseudomonas aeruginosa, 8329; conditions: K-10 agar, 10^4 CFU, 37°C, 18 hours; for MIC: read-out: M.I.C.
Method in brief: (§2)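 Overnight broth cultures (37°C, 18–20 h) were diluted 1:100 and spotted onto K-10 agar plates containing twofold compound dilutions (final 100 to 0.05 µg/ml), giving 10^4 CFU per spot. After 18 h at 37°C, MIC was read as the lowest concentration inhibiting growth.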

Escherichia coli, 10896 = conditions: K-10 agar, 10^4 CFU, 37°C, 18 hours
Method in brief: as §2

Shigella sonnei, 8449 = conditions: K-10 agar, 10^4 CFU, 37°C; for MIC: Shigella sonnei, 8449, 18 h
Method in brief: as §2

[4] = test system: Staphylococcus aureus, 2399; conditions: Staphylococcus aureus, 2399, K-10 agar, 10^4 CFU, 37°C, 18 hours; for MIC: Staphylococcus aureus, 2399, 18 h, read-out: M.I.C.
Method in brief: as §2

[5] = test system: Klebsiella pneumoniae, 9527; conditions: K-10 agar, 10^4 CFU, 37°C; for MIC: Klebsiella pneumoniae, 9527, 18 h, read-out: M.I.C.
Method in brief: as §2

Escherichia coli, 10909 = conditions: K-10 agar, 10^4 CFU, 37°C, 18 hours
Method in brief: as §2

Proteus rettgeri, 8479 = conditions: K-10 agar, 10^4 CFU, 37°C, 18 hours; for MIC: Providencia rettgeri, read-out: M.I.C.
Method in brief: as §2

Escherichia coli, 10857 = conditions: K-10 agar, 10^4 CFU, 37°C; for MIC: Escherichia coli, 10857, 18 h
Method in brief: as §2

Salmonella typhosa, 1195 = conditions: K-10 agar, 10^4 CFU, 37°C; for MIC: Salmonella enterica, TYPHOSA, 18 h
Method in brief: as §2

[6] = test system: Staphylococcus aureus, 1276; conditions: Staphylococcus aureus, 1276, K-10 agar, 10^4 CFU, 37°C, 18 hours; for MIC: read-out: M.I.C.
Method in brief: as §2

[7] = test system: Pseudomonas aeruginosa, 9545; conditions: K-10 agar, 10^4 CFU, 37°C; for MIC: Pseudomonas aeruginosa, 9545, 18 h, read-out: M.I.C.
Method in brief: as §2

Escherichia coli, 8294 = conditions: K-10 agar, 10^4 CFU, 37°C; for MIC: Escherichia coli, 8294, 18 h
Method in brief: as §2

[8] = test system: Citrobacter freundii, 9518; conditions: K-10 agar, 10^4 CFU, 37°C, 18 hours; for MIC: read-out: M.I.C.
Method in brief: as §2

[9] = test system: Serratia marcescens, 9783; conditions: K-10 agar, 10^4 CFU, 37°C; for MIC: Serratia marcescens, 9783, 18 h, read-out: M.I.C.
Method in brief: as §2

[10] = test system: Staphylococcus aureus, 2400; conditions: Staphylococcus aureus, 2400, K-10 agar, 10^4 CFU, 37°C, 18 hours; for MIC: read-out: M.I.C.
Method in brief: as §2

[11] = test system: Acinetobacter calcoaceticus, 8333; conditions: K-10 agar, 10^4 CFU, 37°C; for MIC: Acinetobacter calcoaceticus, 8333, 18 h, read-out: M.I.C.
Method in brief: as §2

[12] = test system: Streptococcus faecalis, 9011; conditions: Streptococcus faecalis, 9011, K-10 agar, 10^4 CFU, 37°C, 18 hours; for MIC: Enterococcus faecalis, read-out: M.I.C.
Method in brief: as §2

[13] = test system: Klebsiella aerogenes, 10440; conditions: K-10 agar, 10^4 CFU, 37°C, 18 hours; for MIC: read-out: M.I.C.
Method in brief: as §2

[14] = test system: Staphylococcus aureus, 10165; conditions: Staphylococcus aureus, 10165, K-10 agar, 10^4 CFU, 37°C, 18 hours; for MIC: read-out: M.I.C.
Method in brief: as §2

Proteus vulgaris, 9416 = conditions: K-10 agar, 10^4 CFU, 37°C, 18 hours; for MIC: read-out: M.I.C.
Method in brief: as §2

Proteus mirabilis, 3855 = conditions: K-10 agar, 10^4 CFU, 37°C; for MIC: Proteus mirabilis, 3855, 18 h, read-out: M.I.C.
Method in brief: as §2

[15] = test system: Enterobacter aerogenes, 10078; conditions: Enterobacter aerogenes, 10078, K-10 agar, 10^4 CFU, 37°C, 18 hours; for MIC: Klebsiella aerogenes, 10078, 18 h, read-out: M.I.C.
Method in brief: as §2

Q: `CON=C(C(=O)NC1C(=O)N(S(=O)(=O)O)C1C)c1csc(N)n1` (stereo not drawn) [Example 9, [3S-[3α(Z),4α]]-3-[[2-Amino-4-thiazolyl)-methoxyimino)acetyl]amino-4-methyl-2-oxo-1-azetidinesulfonic acid, potassium salt] was tested. Which M.I.C. ([1]; 18 hours, potassium salt) did it give?
A: 1.6 µg/mL

Q: And the M.I.C. (Micrococcus luteus, 2495; 18 hours, potassium salt)?
A: 6.3 µg/mL

Q: What about the M.I.C. ([2]; 18 hours, potassium salt) of the same molecule?
A: 0.1 µg/mL

Q: And the M.I.C. [3]?
A: 100 µg/mL

Q: What about the M.I.C. (Escherichia coli, 10896) of the same molecule?
A: 0.1 µg/mL

Q: And the M.I.C. (Shigella sonnei, 8449; 18 hours)?
A: 0.1 µg/mL

Q: What about the M.I.C. ([4]; potassium salt) of the same molecule?
A: 50 µg/mL

Q: And the M.I.C. ([5]; 18 hours, potassium salt)?
A: <0.05 µg/mL

Q: And the M.I.C. (Escherichia coli, 10909)?
A: <0.05 µg/mL

Q: What about the M.I.C. (Proteus rettgeri, 8479) of the same molecule?
A: <0.05 µg/mL

Q: What about the M.I.C. (Escherichia coli, 10857; 18 hours) of the same molecule?
A: <0.05 µg/mL

Q: And the M.I.C. (Salmonella typhosa, 1195; 18 hours)?
A: <0.05 µg/mL

Q: What about the M.I.C. [6] of the same molecule?
A: 100 µg/mL

Q: And the M.I.C. ([7]; 18 hours, potassium salt)?
A: 0.4 µg/mL

Q: What about the M.I.C. (Escherichia coli, 8294; 18 hours) of the same molecule?
A: 0.1 µg/mL

Q: And the M.I.C. [8]?
A: 0.1 µg/mL

Q: What about the M.I.C. ([9]; 18 hours, potassium salt) of the same molecule?
A: 0.2 µg/mL

Q: What about the M.I.C. [10] of the same molecule?
A: 50 µg/mL

Q: And the M.I.C. ([11]; 18 hours, potassium salt)?
A: 25 µg/mL

Q: What about the M.I.C. [12] of the same molecule?
A: - (A dash (-) in the tables means that the compound tested did not show activity against the particular organism at 100 µg/ml)

Q: What about the M.I.C. [13] of the same molecule?
A: 0.2 µg/mL

Q: And the M.I.C. [14]?
A: - (A dash (-) in the tables means that the compound tested did not show activity against the particular organism at 100 µg/ml)

Q: What about the M.I.C. (Proteus vulgaris, 9416) of the same molecule?
A: <0.05 µg/mL

Q: And the M.I.C. (Proteus mirabilis, 3855; 18 hours, potassium salt)?
A: <0.05 µg/mL

Q: What about the M.I.C. ([15]; potassium salt) of the same molecule?
A: 0.2 µg/mL

Q: `CC1C(NC(=O)C(NC(=O)N2CCN(N=Cc3ccco3)C2=O)c2ccccc2)C(=O)N1S(=O)(=O)O` (stereo not drawn) [Example 11, [3S-[3α(R*),4β]]-3-[[[[[3-[(2-furanyl-methylene)amino]-2-oxo-1-imidazolidinyl]-carbonyl]amino]phenylacetyl]amino]-4-methyl-2-oxo-1-azetidinesulfonic acid, potassium salt] was tested. Which MIC [1] did it give?
A: 0.4 µg/mL

Q: What about the MIC (Micrococcus luteus, 2495) of the same molecule?
A: 6.3 µg/mL

Q: And the MIC [2]?
A: 0.8 µg/mL

Q: And the MIC [3]?
A: 12.5 µg/mL

Q: What about the MIC (Escherichia coli, 10896) of the same molecule?
A: 0.4 µg/mL

Q: And the MIC (Shigella sonnei, 8449)?
A: 0.4 µg/mL

Q: What about the MIC [4] of the same molecule?
A: 25 µg/mL

Q: What about the MIC [5] of the same molecule?
A: 0.1 µg/mL

Q: What about the MIC (Escherichia coli, 10909) of the same molecule?
A: 0.1 µg/mL

Q: And the MIC (Proteus rettgeri, 8479)?
A: 0.4 µg/mL

Q: What about the MIC (Escherichia coli, 10857) of the same molecule?
A: < 0.05 µg/mL

Q: And the MIC (Salmonella typhosa, 1195)?
A: 0.2 µg/mL

Q: And the MIC [6]?
A: 25 µg/mL

Q: What about the MIC [7] of the same molecule?
A: 1.6 µg/mL

Q: What about the MIC (Escherichia coli, 8294) of the same molecule?
A: 1.6 µg/mL

Q: And the MIC [8]?
A: 0.8 µg/mL

Q: And the MIC [9]?
A: 0.8 µg/mL

Q: And the MIC [10]?
A: 25 µg/mL

Q: And the MIC [11]?
A: 12.5 µg/mL

Q: And the MIC [12]?
A: > 100 µg/mL

Q: What about the MIC [13] of the same molecule?
A: 0.8 µg/mL

Q: What about the MIC [14] of the same molecule?
A: > 100 µg/mL

Q: And the MIC (Proteus vulgaris, 9416)?
A: < 0.05 µg/mL

Q: And the MIC (Proteus mirabilis, 3855)?
A: 0.4 µg/mL

Q: What about the MIC [15] of the same molecule?
A: 1.6 µg/mL

Q: What does the source list for `CCN1CCN(C(=O)NC(C(=O)NC2C(=O)N(S(=O)(=O)O)C2C)c2ccccc2)C(=O)C1=O` (stereo not drawn) [Example 12, [3S-[3α(R*),4β]]-3-[[[[(4-ethyl-2,3-dioxo-1-piperazinyl)carbonyl]amino]phenylacetyl]-amino]-4-methyl-2-oxo-1-azetidinesulfonic acid, potassium salt]?
A: MIC [1]: 6.3 µg/mL; MIC (Micrococcus luteus, 2495): 6.3 µg/mL; MIC [2]: 1.6 µg/mL; MIC [3]: 12.5 µg/mL; MIC (Escherichia coli, 10896): 1.6 µg/mL; MIC (Shigella sonnei, 8449): 0.8 µg/mL; MIC [4]: 50 µg/mL; MIC [5]: 0.1 µg/mL; MIC (Escherichia coli, 10909): 0.1 µg/mL; MIC (Proteus rettgeri, 8479): 0.4 µg/mL; MIC (Escherichia coli, 10857): < 0.05 µg/mL; MIC (Salmonella typhosa, 1195): 0.2 µg/mL; MIC [6]: 25 µg/mL; MIC [7]: 0.8 µg/mL; MIC (Escherichia coli, 8294): 1.6 µg/mL; MIC [8]: 1.6 µg/mL; MIC [9]: 1.6 µg/mL; MIC [10]: 50 µg/mL; MIC [11]: 12.5 µg/mL; MIC [12]: > 100 µg/mL; MIC [13]: 1.6 µg/mL; MIC [14]: > 100 µg/mL; MIC (Proteus vulgaris, 9416): < 0.05 µg/mL; MIC (Proteus mirabilis, 3855): 0.4 µg/mL; MIC [15]: 3.1 µg/mL

Q: How did the MIC [1] turn out when `C[C@H]1[C@H](NC(=O)/C(=N\OC(C)(C)C(=O)OCc2ccc([N+](=O)[O-])cc2)c2csc(N)n2)C(=O)N1S(=O)(=O)O` [Example 15, [3S-[3α(Z),4β]]-3-[[(2-Amino-4-thiazolyl)[[1,1-dimethyl-2-[(4-nitrophenyl)methoxy]-2-oxoethoxy]-imino]acetyl]amino]-4-methyl-2-oxo-1-azetidinesulfonic acid, potassium salt] was run?
A: 0.8 µg/mL

Q: And the MIC (Micrococcus luteus, 2495)?
A: 1.6 µg/mL

Q: And the MIC [2]?
A: 25 µg/mL

Q: What about the MIC [3] of the same molecule?
A: > 100 µg/mL

Q: What about the MIC (Escherichia coli, 10896) of the same molecule?
A: 6.3 µg/mL

Q: What about the MIC (Shigella sonnei, 8449) of the same molecule?
A: 25 µg/mL

Q: What about the MIC [4] of the same molecule?
A: 6.3 µg/mL

Q: And the MIC [5]?
A: 12.5 µg/mL

Q: And the MIC (Escherichia coli, 10909)?
A: 6.3 µg/mL

Q: What about the MIC (Proteus rettgeri, 8479) of the same molecule?
A: 1.6 µg/mL

Q: What about the MIC (Escherichia coli, 10857) of the same molecule?
A: 0.4 µg/mL

Q: And the MIC (Salmonella typhosa, 1195)?
A: 6.3 µg/mL

Q: And the MIC [6]?
A: 6.3 µg/mL

Q: What about the MIC [7] of the same molecule?
A: 12.5 µg/mL

Q: What about the MIC (Escherichia coli, 8294) of the same molecule?
A: 50 µg/mL

Q: And the MIC [8]?
A: 25 µg/mL

Q: And the MIC [9]?
A: 50 µg/mL

Q: And the MIC [10]?
A: 12.5 µg/mL

Q: And the MIC [11]?
A: > 100 µg/mL

Q: What about the MIC [12] of the same molecule?
A: > 100 µg/mL

Q: And the MIC [13]?
A: > 100 µg/mL

Q: And the MIC [14]?
A: 50 µg/mL

Q: What about the MIC (Proteus vulgaris, 9416) of the same molecule?
A: 1.6 µg/mL

Q: And the MIC (Proteus mirabilis, 3855)?
A: 6.3 µg/mL

Q: What about the MIC [15] of the same molecule?
A: 100 µg/mL
